Measured values: PubChem BioAssay AID330 (DTP/NCI, 2004)
Where “and” joins values, the source holds several entries; their conditions need not be identical. Equal values may be shown once. Toxic doses and inconclusive results are not listed. Rule for the calls: active = survival T/C of 150% or more; inactive = T/C below 125% in these data.

System: P388 leukemia ip, CD2F1 mice, survival T/C
Experiment: NCI In Vivo Anticancer Drug Screen. Data for tumor model P388 Leukemia (intraperitoneal) in CD2F1 (CDF1) mice
Settings: endpoint: median survival time, higher = longer survival
Summary of the method: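 Mice carrying the transplanted tumor received test compound or vehicle. Survival was recorded in each group, and the value is the treated-group measurement divided by that of the vehicle-treated control group.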

[1] = dose: 100.0 mg/kg/injection, schedule: Q01DX001 (ip), vehicle: saline
[2] = dose: 50.0 mg/kg/injection, schedule: Q01DX005 (ip), vehicle: saline with Tween-80
[3] = dose: 100.0 mg/kg/injection, schedule: Q01DX005 (ip), vehicle: saline with Tween-80
[4] = dose: 200.0 mg/kg/injection, schedule: Q01DX005 (ip), vehicle: saline with Tween-80
[5] = dose: 50.0 mg/kg/injection, schedule: Q01DX005 (ip), vehicle: Klucel (hydroxypropylcellulose) (HPC)
[6] = dose: 100.0 mg/kg/injection, schedule: Q01DX005 (ip), vehicle: Klucel (hydroxypropylcellulose) (HPC)
[7] = dose: 200.0 mg/kg/injection, schedule: Q01DX005 (ip), vehicle: Klucel (hydroxypropylcellulose) (HPC)
[8] = dose: 50.0 mg/kg/injection, schedule: Q01DX009 (ip), vehicle: saline with Tween-80
[9] = dose: 50.0 mg/kg/injection, schedule: Q01DX009 (ip), vehicle: saline
[10] = dose: 100.0 mg/kg/injection, schedule: Q01DX009 (ip), vehicle: saline with Tween-80
[11] = dose: 200.0 mg/kg/injection, schedule: Q01DX009 (ip), vehicle: saline with Tween-80
[12] = dose: 60.0 mg/kg/injection, schedule: Q01DX005 (ip), vehicle: saline with Tween-80
[13] = dose: 120.0 mg/kg/injection, schedule: Q01DX005 (ip), vehicle: saline with Tween-80

Measured: T/C

CCOC1CC2(O)c3c(cc4c(c3O)C(=O)c3c(O)ccc(O)c3C4=O)OC2O1 (configuration not stated)
inactive: [1] 103 % of control | dose: 200.0 mg/kg/injection, schedule: Q01DX001 (ip), vehicle: saline 109 % of control | dose: 400.0 mg/kg/injection, schedule: Q01DX001 (ip), vehicle: saline 116 % of control

COc1ccc(C(=O)NCc2cccnc2)cc1C(=O)NCc1cccnc1
inactive: [2] 94 % of control | [3] 103 % of control | [4] 99 % of control

CCCCCCCCOP(=O)(CC(CP(=O)(O)OC)P(=O)(O)OC)OCCCCCCCC (configuration not stated)
inactive: [5] 91 % of control | [6] 94 % of control | [7] 93 % of control

CCOC(=O)C1C/C(=N\O)c2ccc(OC)c(OC)c2C1 (configuration not stated)
inactive: dose: 25.0 mg/kg/injection, schedule: Q01DX009 (ip), vehicle: other 101 % of control | dose: 50.0 mg/kg/injection, schedule: Q01DX009 (ip), vehicle: other 91 % of control | dose: 100.0 mg/kg/injection, schedule: Q01DX009 (ip), vehicle: other 93 % of control | dose: 200.0 mg/kg/injection, schedule: Q01DX009 (ip), vehicle: other 97 % of control | dose: 400.0 mg/kg/injection, schedule: Q01DX009 (ip), vehicle: other 100 % of control

N#CC1(C#N)C(CCl)C1(C#N)C#N
inactive: dose: 12.5 mg/kg/injection, schedule: Q01DX009 (ip), vehicle: saline with Tween-80 98 % of control | dose: 25.0 mg/kg/injection, schedule: Q01DX009 (ip), vehicle: saline with Tween-80 94 % of control | [8] 98 % of control | [9] 102 % of control

CCOc1ccc(C2c3ccc(OC)cc3OC(C)(C)C2c2ccccc2)cc1[N+](=O)[O-] (configuration not stated)
inactive: [5] 101 % of control | [6] 99 % of control | [7] 95 % of control

O=[N+]([O-])c1ccc(N=Nc2ccc(N(CCCl)CCCl)cc2)cc1
inactive: dose: 50.0 mg/kg/injection, schedule: Q04DX003 (ip), vehicle: Klucel (hydroxypropylcellulose) (HPC) 100 % of control | dose: 100.0 mg/kg/injection, schedule: Q04DX003 (ip), vehicle: Klucel (hydroxypropylcellulose) (HPC) 100 % of control | dose: 200.0 mg/kg/injection, schedule: Q04DX003 (ip), vehicle: Klucel (hydroxypropylcellulose) (HPC) 106 % of control

Oc1ccc(O)c2c1C1(Cl)C(Cl)=C(Cl)C2(Cl)C1(Cl)Cl
inactive: dose: 100.0 mg/kg/injection, schedule: Q04DX003 (ip), vehicle: other 100 % of control | dose: 200.0 mg/kg/injection, schedule: Q04DX003 (ip), vehicle: other 104 % of control | dose: 400.0 mg/kg/injection, schedule: Q04DX003 (ip), vehicle: other 113 % of control

Cc1ccc(S(=O)(=O)O/N=C2/CCC(C)(C)c3ccccc32)cc1
inactive: [10] 90 % of control | [11] 100 % of control | dose: 400.0 mg/kg/injection, schedule: Q01DX009 (ip), vehicle: saline with Tween-80 90 % of control

CC(C)NC(=O)OCc1c(COC(=O)NC(C)C)c(S(C)(=O)=O)n2c1CCC2
inactive: dose: 25.0 mg/kg/injection, schedule: Q01DX005 (ip), vehicle: saline with Tween-80 89 % of control | [2] 86 % of control | [3] 88 % of control | [4] 91 % of control

Cc1ccc(/C=C/C(=O)C(CN(C)C)CN(C)C)cc1
inactive: dose: 1.56 mg/kg/injection, schedule: Q01DX005 (ip), vehicle: saline 100 % of control | dose: 3.12 mg/kg/injection, schedule: Q01DX005 (ip), vehicle: saline 106 % of control

OC[C@@H](O)C[C@H](CO)Cc1ccc2c(c1)OCO2
inactive: dose: 50.0 mg/kg/injection, schedule: Q04DX002 (ip), vehicle: saline with Tween-80 96 % of control | dose: 100.0 mg/kg/injection, schedule: Q04DX002 (ip), vehicle: saline with Tween-80 87 % of control | dose: 200.0 mg/kg/injection, schedule: Q04DX002 (ip), vehicle: saline with Tween-80 99 % of control

Nc1ccn(COCCOCc2ccccc2)c(=O)n1
inactive: dose: 100.0 mg/kg/injection, schedule: Q04DX002 (ip), vehicle: Klucel (hydroxypropylcellulose) (HPC) 98 % of control | dose: 200.0 mg/kg/injection, schedule: Q04DX002 (ip), vehicle: Klucel (hydroxypropylcellulose) (HPC) 100 % of control | dose: 400.0 mg/kg/injection, schedule: Q04DX002 (ip), vehicle: Klucel (hydroxypropylcellulose) (HPC) 99 % of control

CCn1c2ccccc2c2cc(N=Nc3cc4ccccc4[nH]3)ccc21
inactive: [8] 115 % of control | [10] 113 % of control | [11] 113 % of control

NC(CCSSCCC(N)P(=O)(O)O)P(=O)(O)O (configuration not stated)
inactive: [2] 95 % of control | [3] 92 % of control | [4] 99 % of control

O=C(O)C(Cc1ccccc1F)NC(=O)C(F)(F)F (configuration not stated)
inactive: [8] 92 % of control | [10] 94 % of control | [11] 100 % of control

CC(Cl)CN1CCOC1=O (configuration not stated)
inactive: dose: 12.5 mg/kg/injection, schedule: Q01DX001 (ip), vehicle: saline 106 % of control | dose: 25.0 mg/kg/injection, schedule: Q01DX001 (ip), vehicle: saline 96 % of control | dose: 50.0 mg/kg/injection, schedule: Q01DX001 (ip), vehicle: saline 105 % of control | [1] 102 % of control

CC12C(=O)NC(c3ccncc3)(c3ccccc31)C1C(=O)N(c3ccccc3)C(=O)C12 (configuration not stated)
inactive: [12] 96 % of control | [13] 94 % of control | dose: 240.0 mg/kg/injection, schedule: Q01DX005 (ip), vehicle: saline with Tween-80 94 % of control

COc1cc(C(=O)O)on1
inactive: dose: 25.0 mg/kg/injection, schedule: Q01DX009 (ip), vehicle: saline 103 % of control | [9] 99 % of control | dose: 100.0 mg/kg/injection, schedule: Q01DX009 (ip), vehicle: saline 89 % of control and 96 % of control

S=C(N/N=C/c1c[nH]c2ccccc12)NC12CC3CC(CC(C3)C1)C2
inactive: [12] 101 % of control | [13] 90 % of control

Cc1ccc(C(=O)CC2=NC3NN(c4ccccc4)C(=O)C3=C2CC(=O)c2ccc(C)cc2)cc1 (configuration not stated)
inactive: dose: 60.0 mg/kg/injection, schedule: Q01DX005 (ip), vehicle: suspension in saline 94 % of control | dose: 120.0 mg/kg/injection, schedule: Q01DX005 (ip), vehicle: suspension in saline 98 % of control | dose: 240.0 mg/kg/injection, schedule: Q01DX005 (ip), vehicle: suspension in saline 102 % of control

C/C=C(\C)c1cc(=O)c2c(C)cc3c(c2o1)C(=O)c1c(OC)cccc1C3=O
inactive: dose: 100.0 mg/kg/injection, schedule: Q01DX001 (ip), vehicle: saline with Tween-80 96 % of control | dose: 200.0 mg/kg/injection, schedule: Q01DX001 (ip), vehicle: saline with Tween-80 93 % of control | dose: 400.0 mg/kg/injection, schedule: Q01DX001 (ip), vehicle: saline with Tween-80 89 % of control

C=C1C(=O)O[C@H]2C=C(C)[C@H]3[C@@H](OC(C)=O)C[C@@](C)(O)[C@@H]3C[C@H]12
inactive: dose: 12.5 mg/kg/injection, schedule: Q01DX009 (ip), vehicle: suspension in saline 106 % of control | dose: 25.0 mg/kg/injection, schedule: Q01DX009 (ip), vehicle: suspension in saline 106 % of control | dose: 50.0 mg/kg/injection, schedule: Q01DX009 (ip), vehicle: suspension in saline 103 % of control | dose: 100.0 mg/kg/injection, schedule: Q01DX009 (ip), vehicle: suspension in saline 114 % of control

CC(C)C1=CC23CCC4C(C)(C(=O)O)CCCC4(C)C2CC1C(C(=O)NCCCN(C)C)C3C(=O)O (configuration not stated)
inactive: dose: 60.0 mg/kg/injection, schedule: Q01DX005 (ip), vehicle: Klucel (hydroxypropylcellulose) (HPC) 95 % of control | dose: 120.0 mg/kg/injection, schedule: Q01DX005 (ip), vehicle: Klucel (hydroxypropylcellulose) (HPC) 95 % of control | dose: 240.0 mg/kg/injection, schedule: Q01DX005 (ip), vehicle: Klucel (hydroxypropylcellulose) (HPC) 93 % of control

Oc1[nH]c2ccccc2c1N=NC1=NCCN1
inactive: dose: 60.0 mg/kg/injection, schedule: Q01DX005 (ip), vehicle: saline 101 % of control | dose: 120.0 mg/kg/injection, schedule: Q01DX005 (ip), vehicle: saline 104 % of control | dose: 240.0 mg/kg/injection, schedule: Q01DX005 (ip), vehicle: saline 87 % of control

Cc1ccc2c(c1)C(=O)c1ccccc1/C2=C1\c2ccccc2C(=O)c2cc(C)ccc21
inactive: dose: 50.0 mg/kg/injection, schedule: Q01DX005 (ip), vehicle: Klucel + Tween-80 105 % of control | dose: 100.0 mg/kg/injection, schedule: Q01DX005 (ip), vehicle: Klucel + Tween-80 89 % of control | dose: 200.0 mg/kg/injection, schedule: Q01DX005 (ip), vehicle: Klucel + Tween-80 89 % of control
